How the values were obtained:
Experiment in all cases: KINOMEscan kinase binding assay
[1] = molecular target: T1, 384 kinases from the human genome (Homo sapiens, UniProt O14936); details: kinase CASK (Entrez CASK)
T1 construct: purchased Eurofin/DiscoverX
Procedure, shortened: (§1)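 A panel of 384 human kinases was profiled by KINOMEscan binding in the presence of 10 µM compound. Kinase–ligand binding was given as percent of DMSO control, averaged from duplicates in a single run, with an S(10) selectivity score.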

[2] = molecular target: T2, 384 kinases from the human genome (Homo sapiens, UniProt O94921); details: kinase PFTK1 (Entrez CDK14)
T2 construct: purchased Eurofin/DiscoverX
Procedure, shortened: as §1

[3] = molecular target: T3, 384 kinases from the human genome (Homo sapiens, UniProt P00519); details: kinase ABL1-phosphorylated (Entrez ABL1)
T3 construct: purchased Eurofin/DiscoverX
T3 sequence (P00519 whole entry): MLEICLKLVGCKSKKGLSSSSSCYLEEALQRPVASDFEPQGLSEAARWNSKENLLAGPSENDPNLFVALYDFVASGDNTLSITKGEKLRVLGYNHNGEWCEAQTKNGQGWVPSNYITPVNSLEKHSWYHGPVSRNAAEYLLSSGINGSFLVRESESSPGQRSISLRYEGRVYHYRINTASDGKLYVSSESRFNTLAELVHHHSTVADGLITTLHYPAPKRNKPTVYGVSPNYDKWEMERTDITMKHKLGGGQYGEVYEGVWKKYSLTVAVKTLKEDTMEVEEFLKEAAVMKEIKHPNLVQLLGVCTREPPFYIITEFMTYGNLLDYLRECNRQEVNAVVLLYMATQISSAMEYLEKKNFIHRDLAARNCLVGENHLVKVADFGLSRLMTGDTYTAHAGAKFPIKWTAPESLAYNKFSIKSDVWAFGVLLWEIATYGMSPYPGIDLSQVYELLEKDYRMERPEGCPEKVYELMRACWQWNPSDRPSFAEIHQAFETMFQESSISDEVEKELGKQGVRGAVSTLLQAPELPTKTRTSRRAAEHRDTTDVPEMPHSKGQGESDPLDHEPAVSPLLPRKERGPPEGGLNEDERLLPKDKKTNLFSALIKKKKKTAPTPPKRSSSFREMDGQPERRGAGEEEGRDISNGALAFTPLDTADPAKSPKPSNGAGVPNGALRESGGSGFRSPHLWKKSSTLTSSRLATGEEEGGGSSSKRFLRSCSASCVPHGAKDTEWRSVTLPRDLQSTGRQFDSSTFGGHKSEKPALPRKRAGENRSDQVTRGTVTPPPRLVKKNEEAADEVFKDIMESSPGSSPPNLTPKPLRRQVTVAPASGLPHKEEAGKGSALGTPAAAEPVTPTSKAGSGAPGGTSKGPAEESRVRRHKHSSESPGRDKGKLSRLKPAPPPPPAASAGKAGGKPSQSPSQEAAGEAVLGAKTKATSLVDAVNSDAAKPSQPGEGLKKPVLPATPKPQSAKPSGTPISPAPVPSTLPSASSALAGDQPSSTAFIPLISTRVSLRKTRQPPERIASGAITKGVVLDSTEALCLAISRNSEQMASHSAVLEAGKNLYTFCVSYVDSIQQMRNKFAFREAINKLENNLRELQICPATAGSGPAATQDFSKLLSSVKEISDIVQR
Procedure, shortened: as §1

[4] = molecular target: T4, 384 kinases from the human genome (Homo sapiens, UniProt P04626); details: kinase ERBB2 (Entrez ERBB2)
T4 construct: purchased Eurofin/DiscoverX
T4 sequence (P04626 23-1255): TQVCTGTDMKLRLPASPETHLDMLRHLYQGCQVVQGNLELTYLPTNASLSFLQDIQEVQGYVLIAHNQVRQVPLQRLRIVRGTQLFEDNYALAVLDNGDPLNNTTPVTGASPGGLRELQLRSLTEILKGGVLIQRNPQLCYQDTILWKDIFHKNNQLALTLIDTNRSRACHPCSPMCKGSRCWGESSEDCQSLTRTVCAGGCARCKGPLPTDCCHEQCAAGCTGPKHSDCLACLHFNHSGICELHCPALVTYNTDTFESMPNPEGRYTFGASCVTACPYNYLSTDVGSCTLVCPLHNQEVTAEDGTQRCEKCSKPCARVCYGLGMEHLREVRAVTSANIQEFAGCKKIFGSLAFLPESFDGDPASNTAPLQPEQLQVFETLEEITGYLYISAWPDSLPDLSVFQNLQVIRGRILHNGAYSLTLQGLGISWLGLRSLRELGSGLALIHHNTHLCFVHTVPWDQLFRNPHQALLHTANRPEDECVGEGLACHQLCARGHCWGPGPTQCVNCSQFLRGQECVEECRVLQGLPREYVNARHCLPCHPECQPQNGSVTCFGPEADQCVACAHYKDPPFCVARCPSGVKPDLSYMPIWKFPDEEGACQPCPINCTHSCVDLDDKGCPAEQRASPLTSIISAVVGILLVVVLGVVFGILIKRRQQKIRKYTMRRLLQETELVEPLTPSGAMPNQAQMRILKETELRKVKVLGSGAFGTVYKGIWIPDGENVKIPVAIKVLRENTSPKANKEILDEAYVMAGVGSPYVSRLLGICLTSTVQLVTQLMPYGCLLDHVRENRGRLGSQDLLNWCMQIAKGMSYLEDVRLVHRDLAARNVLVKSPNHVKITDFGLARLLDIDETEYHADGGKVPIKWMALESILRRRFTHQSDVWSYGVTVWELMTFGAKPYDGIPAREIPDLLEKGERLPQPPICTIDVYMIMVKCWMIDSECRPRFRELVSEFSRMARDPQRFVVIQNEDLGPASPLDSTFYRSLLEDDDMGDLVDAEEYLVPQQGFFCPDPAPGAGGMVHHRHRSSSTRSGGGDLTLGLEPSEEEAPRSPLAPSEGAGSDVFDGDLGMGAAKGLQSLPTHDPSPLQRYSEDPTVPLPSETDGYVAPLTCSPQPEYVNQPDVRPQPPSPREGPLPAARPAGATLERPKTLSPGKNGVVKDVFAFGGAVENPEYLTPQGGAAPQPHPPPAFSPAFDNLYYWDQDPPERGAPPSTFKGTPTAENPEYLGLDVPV
Procedure, shortened: as §1

[5] = molecular target: T5, 384 kinases from the human genome (Homo sapiens, UniProt P09769); details: kinase FGR (Entrez FGR)
T5 construct: purchased Eurofin/DiscoverX
T5 sequence (P09769 whole entry): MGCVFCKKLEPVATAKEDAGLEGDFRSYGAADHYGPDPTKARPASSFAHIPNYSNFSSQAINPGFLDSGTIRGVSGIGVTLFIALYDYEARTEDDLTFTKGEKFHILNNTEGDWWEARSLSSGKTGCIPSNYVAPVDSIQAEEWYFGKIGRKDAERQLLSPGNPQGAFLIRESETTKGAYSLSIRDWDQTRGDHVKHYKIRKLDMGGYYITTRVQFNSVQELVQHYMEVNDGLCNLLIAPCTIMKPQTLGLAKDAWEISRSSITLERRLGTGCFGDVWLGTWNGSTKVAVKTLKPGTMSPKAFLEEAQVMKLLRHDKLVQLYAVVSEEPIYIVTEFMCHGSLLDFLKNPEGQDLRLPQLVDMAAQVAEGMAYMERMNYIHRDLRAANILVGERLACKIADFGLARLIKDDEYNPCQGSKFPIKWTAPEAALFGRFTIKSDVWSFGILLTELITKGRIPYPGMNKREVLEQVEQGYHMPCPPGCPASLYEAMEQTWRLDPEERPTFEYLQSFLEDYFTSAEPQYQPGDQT
Procedure, shortened: as §1

[6] = molecular target: T6, 384 kinases from the human genome (Homo sapiens, UniProt P14616); details: kinase INSRR (Entrez INSRR)
T6 construct: purchased Eurofin/DiscoverX
Procedure, shortened: as §1

[7] = molecular target: T7, 384 kinases from the human genome (Homo sapiens, UniProt P17948); details: kinase FLT1 (Entrez FLT1)
T7 construct: purchased Eurofin/DiscoverX
Procedure, shortened: as §1

[8] = molecular target: T8, 384 kinases from the human genome (Homo sapiens, UniProt P27361); details: kinase ERK1 (Entrez MAPK3)
T8 construct: purchased Eurofin/DiscoverX
Procedure, shortened: as §1

[9] = molecular target: T9, 384 kinases from the human genome (Homo sapiens, UniProt P41240); details: kinase CSK (Entrez CSK)
T9 construct: purchased Eurofin/DiscoverX
Procedure, shortened: as §1

[10] = molecular target: T10, 384 kinases from the human genome (Homo sapiens, UniProt P43403); details: kinase ZAP70 (Entrez ZAP70)
T10 construct: purchased Eurofin/DiscoverX
Procedure, shortened: as §1

[11] = molecular target: T11, 384 kinases from the human genome (Homo sapiens, UniProt P45985); details: kinase MEK4 (Entrez MAP2K4)
T11 construct: purchased Eurofin/DiscoverX
T11 sequence (P45985 whole entry): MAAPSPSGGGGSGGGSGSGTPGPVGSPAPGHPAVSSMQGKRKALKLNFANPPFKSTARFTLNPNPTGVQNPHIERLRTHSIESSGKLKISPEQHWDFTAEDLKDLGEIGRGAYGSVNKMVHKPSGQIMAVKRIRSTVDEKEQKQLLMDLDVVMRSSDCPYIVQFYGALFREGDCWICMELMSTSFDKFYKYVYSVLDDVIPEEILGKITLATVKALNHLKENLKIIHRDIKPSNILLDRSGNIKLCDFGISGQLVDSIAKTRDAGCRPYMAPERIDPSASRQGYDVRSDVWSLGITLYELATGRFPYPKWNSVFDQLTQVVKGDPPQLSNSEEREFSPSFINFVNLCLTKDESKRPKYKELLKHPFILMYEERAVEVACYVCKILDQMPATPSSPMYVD
Procedure, shortened: as §1

[12] = molecular target: T12, 384 kinases from the human genome (Homo sapiens, UniProt P49674); details: kinase CSNK1E (Entrez CSNK1E)
T12 construct: purchased Eurofin/DiscoverX
Procedure, shortened: as §1

[13] = molecular target: T13, 384 kinases from the human genome (Homo sapiens, UniProt P54762); details: kinase EPHB1 (Entrez EPHB1)
T13 construct: purchased Eurofin/DiscoverX
Procedure, shortened: as §1

[14] = molecular target: T14, 384 kinases from the human genome (Homo sapiens, UniProt Q04759); details: kinase PRKCQ (Entrez PRKCQ)
T14 construct: purchased Eurofin/DiscoverX
T14 sequence (Q04759 whole entry): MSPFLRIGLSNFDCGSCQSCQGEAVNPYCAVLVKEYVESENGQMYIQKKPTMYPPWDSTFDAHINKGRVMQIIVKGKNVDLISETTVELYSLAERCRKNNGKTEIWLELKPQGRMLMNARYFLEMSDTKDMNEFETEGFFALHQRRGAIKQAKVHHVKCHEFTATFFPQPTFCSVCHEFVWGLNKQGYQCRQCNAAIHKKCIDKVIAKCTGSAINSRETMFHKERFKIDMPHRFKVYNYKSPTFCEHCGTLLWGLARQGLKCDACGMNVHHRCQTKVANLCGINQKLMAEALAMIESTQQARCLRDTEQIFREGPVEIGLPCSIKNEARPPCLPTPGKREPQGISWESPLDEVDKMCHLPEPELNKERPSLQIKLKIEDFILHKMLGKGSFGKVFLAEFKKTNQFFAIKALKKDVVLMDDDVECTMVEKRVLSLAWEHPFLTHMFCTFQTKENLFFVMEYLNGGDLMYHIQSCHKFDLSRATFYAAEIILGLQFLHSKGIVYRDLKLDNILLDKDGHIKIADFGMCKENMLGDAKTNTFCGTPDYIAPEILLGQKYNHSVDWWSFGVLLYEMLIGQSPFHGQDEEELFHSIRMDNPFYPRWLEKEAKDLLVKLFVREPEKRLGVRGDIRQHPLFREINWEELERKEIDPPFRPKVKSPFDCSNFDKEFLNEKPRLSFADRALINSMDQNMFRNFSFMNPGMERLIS
Procedure, shortened: as §1

[15] = molecular target: T15, 384 kinases from the human genome (Homo sapiens, UniProt Q6P2M8); details: kinase CAMK1B (Entrez PNCK)
T15 construct: purchased Eurofin/DiscoverX
Procedure, shortened: as §1

[16] = molecular target: T16, 384 kinases from the human genome (Homo sapiens, UniProt Q8N752); details: kinase CSNK1A1L (Entrez CSNK1A1L)
T16 construct: purchased Eurofin/DiscoverX
T16 sequence (Q8N752 whole entry): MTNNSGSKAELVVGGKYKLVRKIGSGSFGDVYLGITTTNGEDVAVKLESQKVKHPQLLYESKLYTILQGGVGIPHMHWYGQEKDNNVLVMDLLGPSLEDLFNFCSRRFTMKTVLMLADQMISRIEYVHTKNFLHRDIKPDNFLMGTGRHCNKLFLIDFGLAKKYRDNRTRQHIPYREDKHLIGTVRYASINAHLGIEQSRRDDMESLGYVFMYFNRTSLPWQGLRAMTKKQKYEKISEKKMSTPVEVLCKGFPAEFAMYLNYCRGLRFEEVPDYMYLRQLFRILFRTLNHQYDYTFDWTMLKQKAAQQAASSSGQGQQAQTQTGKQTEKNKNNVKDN
Procedure, shortened: as §1

[17] = molecular target: T17, 384 kinases from the human genome (Homo sapiens, UniProt Q8WTQ7); details: kinase GRK7 (Entrez GRK7)
T17 construct: purchased Eurofin/DiscoverX
Procedure, shortened: as §1

[18] = molecular target: T18, 384 kinases from the human genome (Homo sapiens, UniProt Q96GD4); details: kinase AURKB (Entrez AURKB)
T18 construct: purchased Eurofin/DiscoverX
Procedure, shortened: as §1

[19] = molecular target: T19, 384 kinases from the human genome (Homo sapiens, UniProt Q96PN8); details: kinase TSSK3 (Entrez TSSK3)
T19 construct: purchased Eurofin/DiscoverX
Procedure, shortened: as §1

[20] = molecular target: T20, 384 kinases from the human genome (Homo sapiens, UniProt Q9BUB5); details: kinase MKNK1 (Entrez MKNK1)
T20 construct: purchased Eurofin/DiscoverX
Procedure, shortened: as §1

[21] = molecular target: T21, 384 kinases from the human genome (Homo sapiens, UniProt Q9BYP7); details: kinase WNK3 (Entrez WNK3)
T21 construct: purchased Eurofin/DiscoverX
Procedure, shortened: as §1

[22] = molecular target: T22, 384 kinases from the human genome (Homo sapiens, UniProt Q9BYT3); details: kinase STK33 (Entrez STK33)
T22 construct: purchased Eurofin/DiscoverX
T22 sequence (Q9BYT3 whole entry): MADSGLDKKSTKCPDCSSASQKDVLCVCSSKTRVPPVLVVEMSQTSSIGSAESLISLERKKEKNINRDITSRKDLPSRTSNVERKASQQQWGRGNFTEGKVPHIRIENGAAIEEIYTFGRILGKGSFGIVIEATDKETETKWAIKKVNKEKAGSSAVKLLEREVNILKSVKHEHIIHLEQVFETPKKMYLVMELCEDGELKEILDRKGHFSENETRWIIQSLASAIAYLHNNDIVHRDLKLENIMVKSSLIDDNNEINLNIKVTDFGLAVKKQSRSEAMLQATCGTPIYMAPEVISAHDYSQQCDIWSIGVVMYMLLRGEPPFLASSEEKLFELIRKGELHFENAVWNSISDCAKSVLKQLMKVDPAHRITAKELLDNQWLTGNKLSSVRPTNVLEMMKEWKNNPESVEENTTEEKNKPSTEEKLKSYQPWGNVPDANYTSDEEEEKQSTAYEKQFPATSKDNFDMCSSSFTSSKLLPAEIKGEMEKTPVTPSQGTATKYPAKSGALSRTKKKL
Procedure, shortened: as §1

[23] = molecular target: T23, 384 kinases from the human genome (Homo sapiens, UniProt Q9HAZ1); details: kinase CLK4 (Entrez CLK4)
T23 construct: purchased Eurofin/DiscoverX
Procedure, shortened: as §1

[24] = molecular target: T24, 384 kinases from the human genome (Homo sapiens, UniProt Q9NYL2); details: kinase ZAK (Entrez ZAK)
T24 construct: purchased Eurofin/DiscoverX
Procedure, shortened: as §1

[25] = molecular target: T25, 384 kinases from the human genome (Homo sapiens, UniProt Q9P0L2); details: kinase MARK1 (Entrez MARK1)
T25 construct: purchased Eurofin/DiscoverX
Procedure, shortened: as §1

[26] = molecular target: T26, 384 kinases from the human genome (Homo sapiens, UniProt Q9Y6E0); details: kinase MST3 (Entrez STK24)
T26 construct: purchased Eurofin/DiscoverX
Procedure, shortened: as §1

## CC(C)C(=O)N1CCN(c2ccc(NC(=O)c3cc4ccccc4o3)cc2Cl)CC1 [Compound 21]
[1]
  Percent Control: 100%
[2]
  Percent Control: 92%
[3]
  Percent Control: 89%
[4]
  Percent Control: 75%
[5]
  Percent Control: 73%
[6]
  Percent Control: 97%
[7]
  Percent Control: 87%
[8]
  Percent Control: 93%
[9]
  Percent Control: 97%
[10]
  Percent Control: 98%
[11]
  Percent Control: 93%
[12]
  Percent Control: 100%
[13]
  Percent Control: 94%
[14]
  Percent Control: 93%
[15]
  Percent Control: 77%
[16]
  Percent Control: 98%
[17]
  Percent Control: 90%
[18]
  Percent Control: 83%
[19]
  Percent Control: 100%
[20]
  Percent Control: 88%
[21]
  Percent Control: 90%
[22]
  Percent Control: 100%
[23]
  Percent Control: 79%
[24]
  Percent Control: 72%
[25]
  Percent Control: 93%
[26]
  Percent Control: 84%
